Source: paper PMC9698340, “Discovery and SAR Study of Quinoxaline–Arylfuran Derivatives as a New Class of Antitumor Agents” (Pharmaceutics, 2022)

What was measured:
Assay type in all cases: cell-based
[1] = test system: HeLa cells; assay: CCK-8 antiproliferation assay, HeLa; conditions: Homo sapiens; 20 μM, 48 h, CCK-8, mean ± SD; read-out: Inhibition Rate (%) at 20 μM, HeLa
Method: (§1) Human lung carcinoma cell lines A549, human cervical cancer cell lines HeLa, human prostate cancer cell lines PC3, human colorectal carcinoma cell lines HCT116, and human liver cells L02 were purchased from the Chinese Academy of Sciences Shanghai Cell Bank (Shanghai, China). HeLa, A549, PC3, HCT116, and L02 cells were cultured in DMEM Dulbecco’s Modified Eagle Medium (DMEM; Gibco Inc., Gaithersburg, MD, USA). All cultures were provided with 10% fetal bovine serum (FBS; YHSM, Beijing, China), 100 IU/mL penicillin, and 100 μg/mL streptomycin, and cells were incubated at 37 °C in an atmosphere of 5% CO2.
(§2) Cell viability was determined using a CCK-8 kit (Apexbio, Houston, TX, USA). […] Subsequently, absorbance was assessed at 450 nm. Three duplicates were set in each group.
(§3) All synthesized quinoxalines compounds were tested for in vitro cytotoxicity against four cancer cell lines (HeLa, PC3, A549, and HCT116). The inhibitory effects of these compounds were evaluated using the CCK-8 assay after treatment with 20 μM of each compound. […] The species of phenyl substituents have a significant effect on the activity. […] By comparison, hydrophobic substitution at the phenyl ring gave derivatives with relatively low potency (QW7–8). In addition, large substituents on the phenyl ring exerted an unfavorable influence on the potency of the compounds (QW8 and QW16).

[2] = test system: A549 cells; assay: CCK-8 antiproliferation assay, A549; conditions: Homo sapiens, 20 μM, 48 h, CCK-8, mean ± SD, read-out: Inhibition Rate (%) at 20 μM, A549
Method: as §1, §2, §3

[3] = test system: PC3 cells; assay: CCK-8 antiproliferation assay, PC3; conditions: Homo sapiens, PC-3; 20 μM, 48 h, CCK-8, mean ± SD; read-out: Inhibition Rate (%) at 20 μM, PC3
Method: as §1, §2, §3

[4] = test system: HCT116 cells; assay: CCK-8 antiproliferation assay, HCT116; conditions: Homo sapiens, HCT-116; 20 μM, 48 h, CCK-8, mean ± SD; read-out: Inhibition Rate (%) at 20 μM, HCT116
Method: as §1, §2, §3

| SMILES | inhibition at 20 µM [1] [%] | inhibition at 20 µM [2] [%] | inhibition at 20 µM [3] [%] | inhibition at 20 µM [4] [%] |
| --- | --- | --- | --- | --- |
| COc1cc(-c2ccc(/C=N/NC(=O)c3ccc(F)cc3)o2)c(OC)cc1-c1cnc2ccccc2n1 [QW1, (E)-N’-((5-(2,5-dimethoxy-4-(quinoxalin-2-yl)phenyl)furan-2-yl)methylene)-4-fluorobenzohydrazide] | 5.14 ± 0.13 | 7.47 ± 0.52 | 5.13 ± 0.59 | 15.33 ± 0.14 |
| COc1cc(-c2ccc(/C=N/NC(=O)c3ccccc3)o2)c(OC)cc1-c1cnc2ccccc2n1 [QW2, (E)-N’-((5-(2,5-dimethoxy-4-(quinoxalin-2-yl)phenyl)furan-2-yl)methylene)benzohydrazide] | 8.64 ± 0.26 | 6.46 ± 0.43 | 1.76 ± 0.23 | 17.8 ± 0.67 |
| COc1cc(-c2ccc(/C=N/NC(=O)c3cccnc3)o2)c(OC)cc1-c1cnc2ccccc2n1 [QW3, (E)-N’-((5-(2,5-dimethoxy-4-(quinoxalin-2-yl)phenyl)furan-2-yl)methylene)nicotinohydrazide] | 38.81 ± 0.3 | 11.63 ± 0.03 | 32.6 ± 0.65 | 33.8 ± 0.41 |
| COc1cc(-c2ccc(/C=N/NC(=O)c3ccc(O)cc3)o2)c(OC)cc1-c1cnc2ccccc2n1 [QW4, (E)-N’-((5-(2,5-dimethoxy-4-(quinoxalin-2-yl)phenyl)furan-2-yl)methylene)-4-hydroxybenzohydrazide] | 44.29 ± 0.05 | 25.5 ± 0.62 | 38.74 ± 0.2 | 30.7 ± 0.04 |
| COc1cc(-c2ccc(/C=N/NC(=O)c3ccncc3)o2)c(OC)cc1-c1cnc2ccccc2n1 [QW5, (E)-N’-((5-(2,5-dimethoxy-4-(quinoxalin-2-yl)phenyl)furan-2-yl)methylene)isonicotinohydrazide] | 31.13 ± 0.23 | 18.52 ± 0.18 | 26 ± 0.37 | 30.6 ± 0.51 |
| COc1cc(-c2ccc(/C=N/NC(=O)c3ccccn3)o2)c(OC)cc1-c1cnc2ccccc2n1 [QW6, (E)-N’-((5-(2,5-dimethoxy-4-(quinoxalin-2-yl)phenyl)furan-2-yl)methylene)picolinohydrazide] | 0.53 ± 0.12 | 1.66 ± 0.61 | 0.1 ± 0.13 | 16.5 ± 0.25 |
| COc1cc(-c2ccc(/C=N/NC(=O)c3cccc(C)c3)o2)c(OC)cc1-c1cnc2ccccc2n1 [QW7, (E)-N’-((5-(2,5-dimethoxy-4-(quinoxalin-2-yl)phenyl)furan-2-yl)methylene)-3-methylbenzohydrazide] | 8.46 ± 0.42 | 4.31 ± 0.08 | 4.73 ± 0.01 | 2.18 ± 0.38 |
| COc1cc(-c2ccc(/C=N/NC(=O)c3ccc(-c4ccccc4)cc3)o2)c(OC)cc1-c1cnc2ccccc2n1 [QW8, (E)-N’-((5-(2,5-dimethoxy-4-(quinoxalin-2-yl)phenyl)furan-2-yl)methylene)-[1,1’-biphenyl]-4-carbohydrazide] | 3.46 ± 0.17 | 5.8 ± 0.02 | 11.8 ± 0.56 | 20.92 ± 0.05 |
| COc1cc(-c2ccc(/C=N/NC(=O)c3ccc(F)cc3)o2)c(OC)cc1-c1ccc2nccnc2c1 [QW9, (E)-N’-((5-(2,5-dimethoxy-4-(quinoxalin-6-yl)phenyl)furan-2-yl)methylene)-4-fluorobenzohydrazide] | 17.1 ± 0.41 | 1.16 ± 0.63 | 3.98 ± 0.49 | 29.9 ± 0.57 |
| COc1cc(-c2ccc(/C=N/NC(=O)c3ccccc3)o2)c(OC)cc1-c1ccc2nccnc2c1 [QW10, (E)-N’-((5-(2,5-dimethoxy-4-(quinoxalin-6-yl)phenyl)furan-2-yl)methylene)benzohydrazide] | 4.3 ± 0.45 | 8.82 ± 0.08 | 8.09 ± 0.13 | 10.9 ± 0.46 |
| COc1cc(-c2ccc(/C=N/NC(=O)c3cccnc3)o2)c(OC)cc1-c1ccc2nccnc2c1 [QW11, (E)-N’-((5-(2,5-dimethoxy-4-(quinoxalin-6-yl)phenyl)furan-2-yl)methylene)nicotinohydrazide] | 45.5 ± 0.61 | 17.27 ± 0.03 | 29.35 ± 0.18 | 39.9 ± 0.68 |
| COc1cc(-c2ccc(/C=N/NC(=O)c3ccncc3)o2)c(OC)cc1-c1ccc2nccnc2c1 [QW13, (E)-N’-((5-(2,5-dimethoxy-4-(quinoxalin-6-yl)phenyl)furan-2-yl)methylene)isonicotinohydrazide] | 37.71 ± 0.12 | 3.96 ± 0.59 | 18.5 ± 0.3 | 23.2 ± 0.27 |
| COc1cc(-c2ccc(/C=N/NC(=O)c3ccccn3)o2)c(OC)cc1-c1ccc2nccnc2c1 [QW14, (E)-N’-((5-(2,5-dimethoxy-4-(quinoxalin-6-yl)phenyl)furan-2-yl)methylene)picolinohydrazide] | 8.67 ± 0.24 | 5.46 ± 0.7 | 12.9 ± 0.31 | 30.5 ± 0.55 |
| COc1cc(-c2ccc(/C=N/NC(=O)c3cccc(C)c3)o2)c(OC)cc1-c1ccc2nccnc2c1 [QW15, (E)-N’-((5-(2,5-dimethoxy-4-(quinoxalin-6-yl)phenyl)furan-2-yl)methylene)-3-methylbenzohydrazide] | 14.26 ± 0.12 | 9.44 ± 0.39 | 13.77 ± 0.12 | 18.8 ± 0.54 |
| COc1cc(-c2ccc(/C=N/NC(=O)c3ccc(-c4ccccc4)cc3)o2)c(OC)cc1-c1ccc2nccnc2c1 [QW16, (E)-N’-((5-(2,5-dimethoxy-4-(quinoxalin-6-yl)phenyl)furan-2-yl)methylene)-[1,1’-biphenyl]-4-carbohydrazide] | 10.93 ± 0.04 | 4.12 ± 0.33 | 9.37 ± 0.09 | 41.48 ± 0.05 |
| COc1cc(-c2cc(OC)c3ccccc3c2OC)c(OC)cc1-c1ccc(/C=N/NC(=O)c2ccc(F)cc2)o1 [QW17, (E)-N’-((5-(4-(1,4-dimethoxynaphthalen-2-yl)-2,5-dimethoxyphenyl)furan-2-yl)methylene)-4-fluorobenzohydrazide] | 6.49 ± 0.17 | 0.44 ± 0.16 | 11.7 ± 0.66 | 4.69 ± 0.5 |
| COc1cc(-c2cc(OC)c3ccccc3c2OC)c(OC)cc1-c1ccc(/C=N/NC(=O)c2ccccc2)o1 [QW18, (E)-N’-((5-(4-(1,4-dimethoxynaphthalen-2-yl)-2,5-dimethoxyphenyl)furan-2-yl)methylene)benzohydrazide] | 4.3 ± 0.45 | 8.82 ± 0.08 | 8.09 ± 0.13 | 10.9 ± 0.46 |
| COc1cc(-c2cc(OC)c3ccccc3c2OC)c(OC)cc1-c1ccc(/C=N/NC(=O)c2cccnc2)o1 [QW19, (E)-N’-((5-(4-(1,4-dimethoxynaphthalen-2-yl)-2,5-dimethoxyphenyl)furan-2-yl)methylene)nicotinohydrazide] | 9.56 ± 0.65 | 0.15 ± 0.35 | 8.37 ± 0.21 | 4.61 ± 0.66 |
| COc1cc(-c2cc(OC)c3ccccc3c2OC)c(OC)cc1-c1ccc(/C=N/NC(=O)c2ccc(O)cc2)o1 [QW20, (E)-N’-((5-(4-(1,4-dimethoxynaphthalen-2-yl)-2,5-dimethoxyphenyl)furan-2-yl)methylene)-4-hydroxybenzohydrazide] | 22.5 ± 0.25 | 18.73 ± 0.1 | 15.6 ± 0.19 | 48.5 ± 0.01 |
| COc1cc(-c2cc(OC)c3ccccc3c2OC)c(OC)cc1-c1ccc(/C=N/NC(=O)c2ccncc2)o1 [QW21, (E)-N’-((5-(4-(1,4-dimethoxynaphthalen-2-yl)-2,5-dimethoxyphenyl)furan-2-yl)methylene)isonicotinohydrazide] | 0.36 ± 0.6 | 0.68 ± 0.36 | 0.12 ± 0.2 | 4.46 ± 0.24 |
| COc1cc(-c2cc(OC)c3ccccc3c2OC)c(OC)cc1-c1ccc(/C=N/NC(=O)c2ccccn2)o1 [QW22, (E)-N’-((5-(4-(1,4-dimethoxynaphthalen-2-yl)-2,5-dimethoxyphenyl)furan-2-yl)methylene)picolinohydrazide] | 5.47 ± 0.37 | 37.5 ± 0.48 | 0.33 ± 0.06 | 6.58 ± 0.23 |
| COc1cc(-c2cc(OC)c3ccccc3c2OC)c(OC)cc1-c1ccc(/C=N/NC(=O)c2cccc(C)c2)o1 [QW23, (E)-N’-((5-(4-(1,4-dimethoxynaphthalen-2-yl)-2,5-dimethoxyphenyl)furan-2-yl)methylene)-3-methylbenzohydrazide] | 0.84 ± 0.64 | 1.87 ± 0.33 | 2.99 ± 0.25 | 2.26 ± 0.03 |
| COc1cc(-c2cc(OC)c3ccccc3c2OC)c(OC)cc1-c1ccc(/C=N/NC(=O)c2ccc(-c3ccccc3)cc2)o1 [QW24, (E)-N’-((5-(4-(1,4-dimethoxynaphthalen-2-yl)-2,5-dimethoxyphenyl)furan-2-yl)methylene)-[1,1’-biphenyl]-4-carbohydrazide] | 4.96 ± 0.61 | 6 ± 0.1 | 2.4 ± 0.07 | 4.39 ± 0.52 |
